Our source for the IC50 values is US8916565B2, “Pyrrolopyrazine-spirocyclic piperidine amides as modulators of ion channels” (priority 2011, dated 2014).

Broadly, the IC50 is the point on the concentration scale where inhibition reaches its midpoint.

For the experiment, the target named is human NaV subtype, like NaV 1.7 (Homo sapiens, UniProt Q15858). Description: E-VIPR optical membrane potential assay with electrical stimulation. It is filed as cell-based. The following applies: active against one or more sodium channels; Table 3 does not name the assay or NaV subtype; read-out: Binned Activity Data (IC50).
human NaV subtype, like NaV 1.7, sequence (Q15858 whole entry): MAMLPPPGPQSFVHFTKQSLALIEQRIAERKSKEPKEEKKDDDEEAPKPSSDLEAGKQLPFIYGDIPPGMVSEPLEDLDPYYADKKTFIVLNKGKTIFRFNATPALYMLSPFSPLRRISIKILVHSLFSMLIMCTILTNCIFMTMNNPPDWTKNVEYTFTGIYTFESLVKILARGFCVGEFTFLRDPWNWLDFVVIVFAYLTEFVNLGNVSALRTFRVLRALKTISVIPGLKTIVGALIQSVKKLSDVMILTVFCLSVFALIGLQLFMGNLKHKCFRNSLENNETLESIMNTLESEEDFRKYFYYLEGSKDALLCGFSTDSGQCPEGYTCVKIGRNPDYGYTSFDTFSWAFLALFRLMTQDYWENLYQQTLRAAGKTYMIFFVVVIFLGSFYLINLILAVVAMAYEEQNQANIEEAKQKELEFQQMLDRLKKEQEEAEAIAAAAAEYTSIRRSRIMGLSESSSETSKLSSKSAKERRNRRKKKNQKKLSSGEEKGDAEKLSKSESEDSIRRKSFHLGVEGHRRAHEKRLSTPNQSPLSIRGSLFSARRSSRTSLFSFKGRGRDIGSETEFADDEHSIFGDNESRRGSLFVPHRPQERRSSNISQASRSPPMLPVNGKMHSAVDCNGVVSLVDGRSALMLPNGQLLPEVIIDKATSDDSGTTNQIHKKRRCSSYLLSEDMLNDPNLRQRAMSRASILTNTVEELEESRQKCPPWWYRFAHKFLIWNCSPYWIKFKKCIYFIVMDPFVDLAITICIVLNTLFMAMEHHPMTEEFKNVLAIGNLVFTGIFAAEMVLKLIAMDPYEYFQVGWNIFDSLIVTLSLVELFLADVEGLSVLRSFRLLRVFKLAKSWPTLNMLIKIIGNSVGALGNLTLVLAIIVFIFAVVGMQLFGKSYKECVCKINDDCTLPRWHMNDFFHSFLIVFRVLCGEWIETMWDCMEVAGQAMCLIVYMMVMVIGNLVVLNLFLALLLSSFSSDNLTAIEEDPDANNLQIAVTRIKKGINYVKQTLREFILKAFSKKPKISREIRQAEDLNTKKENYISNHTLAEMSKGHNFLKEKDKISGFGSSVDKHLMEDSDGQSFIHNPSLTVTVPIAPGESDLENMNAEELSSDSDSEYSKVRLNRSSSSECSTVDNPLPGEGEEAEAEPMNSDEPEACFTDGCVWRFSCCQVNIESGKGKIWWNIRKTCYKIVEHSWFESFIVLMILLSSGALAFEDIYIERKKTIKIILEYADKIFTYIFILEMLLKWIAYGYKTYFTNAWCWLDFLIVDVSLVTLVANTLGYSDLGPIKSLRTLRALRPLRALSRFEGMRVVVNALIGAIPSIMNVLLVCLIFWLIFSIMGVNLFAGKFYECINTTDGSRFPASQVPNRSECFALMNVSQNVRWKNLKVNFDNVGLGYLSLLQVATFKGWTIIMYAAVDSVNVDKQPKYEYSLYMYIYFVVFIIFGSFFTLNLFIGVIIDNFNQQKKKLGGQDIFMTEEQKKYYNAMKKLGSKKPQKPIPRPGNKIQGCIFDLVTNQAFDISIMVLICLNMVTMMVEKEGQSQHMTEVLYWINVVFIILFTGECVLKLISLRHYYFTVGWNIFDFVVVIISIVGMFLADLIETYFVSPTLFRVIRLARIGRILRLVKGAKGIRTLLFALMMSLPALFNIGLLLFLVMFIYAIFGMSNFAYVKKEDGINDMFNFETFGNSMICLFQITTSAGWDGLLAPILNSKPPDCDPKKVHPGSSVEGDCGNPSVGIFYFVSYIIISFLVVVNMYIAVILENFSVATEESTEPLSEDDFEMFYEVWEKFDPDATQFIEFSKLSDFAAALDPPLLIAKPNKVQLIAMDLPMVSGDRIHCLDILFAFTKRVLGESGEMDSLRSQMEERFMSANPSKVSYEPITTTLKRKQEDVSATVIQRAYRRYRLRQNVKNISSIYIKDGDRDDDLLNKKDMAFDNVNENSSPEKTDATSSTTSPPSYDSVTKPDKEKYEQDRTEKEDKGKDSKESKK
In the case of `CN1CCn2c(C(=O)C(F)(F)F)ccc2C12CCN(C(=O)c1ccc(C3CC3)cc1)CC2` [Compound 389], the IC50 was no more than 2000 nM. The result for `CC(C)Oc1ccc(C(=O)N2CCC3(CC2)c2c(F)cc(C(F)(F)F)n2CCN3C)cc1CO` [Compound 390] reads no more than 2000 nM.

As for `CC(C)Oc1ccc(C(=O)N2CCC3(CC2)c2cc(C(=O)C(F)(F)F)cn2C(C)(C)CN3C)cc1F` [Compound 391], the IC50 is greater than 5000 nM. The result for `CN1CCn2c(C(F)(F)F)ccc2C12CCN(C(=O)c1cccnc1N1CCC(F)(F)C1)CC2` [Compound 392] reads 2000 to 5000 nM. Under `CN1CCn2c(C(F)(F)F)ccc2C12CCN(C(=O)c1ccccc1-c1ccccc1)CC2` [Compound 393] stands greater than 5000 nM. Regarding `Cc1cc(C(=O)N2CCC3(CC2)c2ccc(C#N)n2CCN3C)ccc1OC(C)C` [Compound 394], the half-maximal inhibitory concentration (IC50) was in the range of 2000 to 5000 nM.

As for `CC(C)C(O)c1ccc(C(=O)N2CCC3(CC2)c2c(F)cc(C(F)(F)F)n2CCN3C)cc1` (stereo not shown) [Compound 395], the half-inhibitory concentration (IC50) is no more than 2000 nM. In the case of `CC1(C)Cn2c(C(=O)C(F)(F)F)ccc2C2(CCN(C(=O)c3ccc(S(=O)(=O)C(F)(F)F)cc3)CC2)N1` [Compound 396], the 50% inhibitory concentration (IC50) was no more than 2000 nM. Under `CCCOc1ccc(C(=O)N2CCC3(CC2)c2c(F)cc(C(F)(F)F)n2CCN3C)cc1OC` [Compound 397] stands no more than 2000 nM; under `CC(=O)c1ccc2n1CCN(C)C21CCN(C(=O)c2ccc(OC(C)C)c(Cl)c2)CC1` [Compound 398], no more than 2000 nM. The result for `Cc1cc(S(=O)(=O)C(C)C)ccc1C(=O)N1CCC2(CC1)c1ccc(C(=O)C(C)(C)C)n1CCN2C` [Compound 399] reads 2000 to 5000 nM. Under `CN1CCn2c(Cl)ccc2C12CCN(C(=O)c1ccc(C3CC3)cc1)CC2` [Compound 400] stands greater than 5000 nM. As for `CN1CCn2c(C(F)(F)F)cc(Cl)c2C12CCN(C(=O)c1ccc(CC(C)(C)O)c(F)c1)CC2` [Compound 401], the 50% inhibitory concentration (IC50) is no more than 2000 nM. Turning to `CN1CCn2c(C(=O)C(F)(F)F)ccc2C12CCN(C(=O)c1ccc(Oc3ccccc3)cc1)CC2` [Compound 402], the 50% inhibitory concentration (IC50) fell in the range of 2000 to 5000 nM. Under `CN1CCn2c(C(F)(F)F)ccc2C12CCN(C(=O)c1ccc(Cl)cc1)CC2` [Compound 403] stands greater than 5000 nM; under `CC(C)Oc1ccc(C(=O)N2CCC3(CC2)NC(C)(C)Cn2c(C(=O)C(F)(F)F)ccc23)c(F)c1` [Compound 404], no more than 2000 nM; under `COc1cc(C(=O)N2CCC3(CC2)NCC(C)(C)n2c(C(F)(F)F)ccc23)ccc1OC(C)C` [Compound 405], no more than 2000 nM. `CN1CCn2c(Cl)ccc2C12CCN(C(=O)c1ccc(Oc3ccccc3)cc1)CC2` [Compound 406]: the IC50 lay in the range of 2000 to 5000 nM. `COc1cc(C(=O)N2CCC3(CC2)c2ccc(C(F)(F)F)n2CCN3C)ccc1O` [Compound 407]: the IC50 lay in the range of 2000 to 5000 nM. The result for `CCC(C)(C)c1ccc(C(=O)N2CCC3(CC2)NC(C)(C)Cn2c(C(=O)C(F)(F)F)ccc23)cc1` [Compound 408] reads no more than 2000 nM. Under `CC(C)CCOc1ccc(C(=O)N2CCC3(CC2)NC(C)(C)Cn2c(C(=O)C(F)(F)F)ccc23)cc1` [Compound 409] stands no more than 2000 nM; under `COc1cc(C(=O)N2CCC3(CC2)c2c(F)cc(C(F)(F)F)n2CCN3C)ccc1C1(O)CCC1` [Compound 410], no more than 2000 nM. Under `C[C@H]1Cn2c(C(=O)C(F)(F)F)ccc2C2(CCN(C(=O)c3ccc(C(C)(C)O)c(F)c3)CC2)N1C` [Compound 411] stands no more than 2000 nM. Take `CC[C@@H](C)Oc1ccc(C(=O)N2CCC3(CC2)c2ccc(C(F)(F)C(F)(F)F)n2CCN3C)cc1OC` [Compound 412]: the IC50 was no more than 2000 nM.

Turning to `COc1ccc(C(=O)N2CCC3(CC2)c2ccc(C(=O)C(C)C)n2CCN3C)cc1Cl` [Compound 413], the IC50 is no more than 2000 nM.

In the case of `CN1CCn2c(Cl)ccc2C12CCN(C(=O)c1ccc(COc3ccccc3)cc1)CC2` [Compound 414], the IC50 is 2000 to 5000 nM. Under `CNS(=O)(=O)c1ccc(C(=O)N2CCC3(CC2)c2c(F)cc(C(F)(F)F)n2CCN3C)cc1` [Compound 415] stands no more than 2000 nM. With `CCOc1ccc(C(=O)N2CCC3(CC2)c2ccc(C(C)=O)n2CCN3C)cc1OCC` [Compound 416], the IC50 was greater than 5000 nM.

Turning to `CN1CCn2c(C(=O)C(F)(F)F)ccc2C12CCN(C(=O)c1cc(O)ccc1F)CC2` [Compound 417], the half-inhibitory concentration (IC50) is greater than 5000 nM. Under `CC(=O)c1ccc2n1CC(C)(C)NC21CCN(C(=O)c2ccc(OC(C)C)c(C)c2)CC1` [Compound 418] stands no more than 2000 nM; under `CNC(=O)N1CCn2c(C(F)(F)F)ccc2C12CCN(C(=O)c1ccc(OC(C)C)c(Cl)c1)CC2` [Compound 419], no more than 2000 nM. For `CCOc1ccc(C(=O)N2CCC3(CC2)c2c(Cl)cc(C(F)(F)F)n2CCN3C)cc1C` [Compound 420], the IC50 was no more than 2000 nM. Turning to `Cc1cc(C(=O)N2CCC3(CC2)c2cc(C(=O)C(F)(F)F)cn2C(C)(C)CN3C)ccc1C(C)(C)O` [Compound 421], the concentration for half-maximal inhibition (IC50) was greater than 5000 nM. Under `CN1CCn2c(C(F)(F)F)ccc2C12CCN(C(=O)c1cccnc1Oc1ccccc1)CC2` [Compound 422] stands no more than 2000 nM; under `COc1cc(C(=O)N2CCC3(CC2)c2ccc(C(=O)C(F)(F)F)n2CCN3C)ccc1C(C)(C)C` [Compound 423], no more than 2000 nM. Regarding `Cc1cc(C(=O)N2CCC3(CC2)c2ccc(Cl)n2CCN3C)ccc1-c1ccccc1` [Compound 424], the half-maximal inhibitory concentration (IC50) was no more than 2000 nM. On to `CC(=O)c1ccc2n1CCN(C)C21CCN(C(=O)c2ccc(C3CC3)cc2)CC1` [Compound 425], for which the IC50 was greater than 5000 nM. The result for `CCOC(=O)CN1CCn2c(C(F)(F)F)ccc2C12CCN(C(=O)c1ccc(OC(C)C)c(C)c1)CC2` [Compound 426] reads no more than 2000 nM; that for `CC1Cn2c(C(F)(F)F)ccc2C2(CCN(C(=O)c3ccc(OC(C)C)cc3F)CC2)N1` (stereo not shown) [Compound 427], no more than 2000 nM; that for `CCC(=O)N1CCn2c(C(F)(F)F)ccc2C12CCN(C(=O)c1ccc(OC(C)C)c(OC)c1)CC2` [Compound 428], no more than 2000 nM. Under `COc1cc(C(=O)N2CC[C@@]3(c4ccc(C(F)(F)F)n4CCN3C)[C@@H](C)C2)ccc1OC(C)C` [Compound 429] stands 2000 to 5000 nM; under `Cc1cc(C(=O)N2CCC3(CC2)c2cccn2CCN3C)ccc1OC(C)C` [Compound 430], greater than 5000 nM.

In the case of `CC(C)Oc1ccc(C(=O)N2CCC3(CC2)c2c(F)cc(C(F)(F)F)n2CCN3C)cn1` [Compound 431], the half-maximal inhibitory concentration (IC50) fell in the range of 2000 to 5000 nM.

Take `COc1ccc(C(=O)N2CCC3(CC2)c2ccc(C(=O)C(F)(F)F)n2C[C@@H](C)N3C)cc1C` [Compound 432]: the half-maximal inhibitory concentration (IC50) lay in the range of 2000 to 5000 nM. The result for `Cc1nc(C(=O)N2CCC3(CC2)NC(C)(C)Cn2c(C(=O)C(F)(F)F)ccc23)ccc1OC(C)C` [Compound 433] reads no more than 2000 nM. On to `COCCOc1ccc(C(=O)N2CCC3(CC2)c2ccc(C(=O)C(F)(F)F)n2CCN3C)cc1` [Compound 434], for which the concentration for half-maximal inhibition (IC50) was greater than 5000 nM. Under `COc1cc(C(=O)N2CCC3(CC2)NCCn2c(C(F)(F)F)ccc23)ccc1OC(C)(C)C` [Compound 435] stands 2000 to 5000 nM; under `CC(C)Oc1ccc(C(=O)N2CCC3(CC2)c2c(F)cc(C(F)(F)F)n2CCN3C)cc1F` [Compound 436], no more than 2000 nM; under `Cc1cc(C(=O)N2CCC3(CC2)c2ccc(C(=O)C(F)(F)F)n2C(C)(C)CN3C)ccc1OC(C)C` [Compound 437], no more than 2000 nM. `CC(C)CCOc1ccc(C(=O)N2CCC3(CC2)c2ccc(C(=O)C(F)(F)F)n2CCN3C)nc1` [Compound 438]: the 50% inhibitory concentration (IC50) was no more than 2000 nM.

Take `CC(C)Oc1ccc(C(=O)N2CCC3(CC2)c2ccc(C(=O)C(F)(F)F)n2C[C@H](C)N3C)cc1F` [Compound 439]: the half-maximal inhibitory concentration (IC50) was no more than 2000 nM. Under `COc1cc(C(=O)N2CCC3(CC2)c2ccc(C(F)(F)F)n2CCN3C)ccc1OCCO` [Compound 440] stands greater than 5000 nM; under `CN1CCn2c(C(F)(F)F)ccc2C12CCN(C(=O)c1ccc(S(=O)(=O)C(C)(C)C)cc1)CC2` [Compound 441], no more than 2000 nM; under `CC1(C)Cn2c(C(=O)C(F)(F)F)ccc2C2(CCN(C(=O)c3ccc(S(=O)(=O)NC4CC4)cc3)CC2)N1` [Compound 442], no more than 2000 nM. With `COc1cc(C(=O)N2CCC3(CC2)c2ccc(C(F)(F)F)n2CCN3C)ccc1OC(C)C` [Compound 443], the half-inhibitory concentration (IC50) was no more than 2000 nM. In the case of `CC(C)CCOc1ccc(C(=O)N2CCC3(CC2)c2ccc(C(=O)C(F)(F)F)n2C(C)CN3C)nc1` (stereo not shown) [Compound 444], the IC50 is no more than 2000 nM. The result for `CC(C)Oc1ccc(C(=O)N2CCC3(CC2)c2ccc(C(=O)C4(C)CC4)n2CCN3C)c(F)c1` [Compound 445] reads no more than 2000 nM. Under `CCOc1ccc(C(=O)N2CCC3(CC2)c2ccc(C(=O)C(F)(F)F)n2CCN3C)cc1F` [Compound 446] stands 2000 to 5000 nM; under `CC(=O)c1ccc2n1CCN(C)C21CCN(C(=O)c2ccc(COCC(F)(F)F)cc2)CC1` [Compound 447], greater than 5000 nM; under `COc1ccc(C(=O)N2CCC3(CC2)c2ccc(C(=O)C4(C)CC4)n2CCN3C)nc1C` [Compound 448], no more than 2000 nM. Under `C[C@H]1Cn2c(C(=O)C(F)(F)F)ccc2C2(CCN(C(=O)c3ccc(COCCC(F)(F)F)cc3)CC2)N1C` [Compound 449] stands no more than 2000 nM; under `Cc1cc(C(=O)N2CCC3(CC2)c2ccc(C(F)(F)F)n2CCN3C)ccc1S(=O)(=O)NC(C)C` [Compound 450], no more than 2000 nM; under `CC(C)(O)c1ccc(C(=O)N2CCC3(CC2)c2ccc(C(F)(F)F)n2CCN3C2CC2)cc1` [Compound 451], greater than 5000 nM. As for `O=C(c1cccc2cccnc12)N1CCC2(CC1)NCCn1c(C(F)(F)F)ccc12` [Compound 452], the 50% inhibitory concentration (IC50) lay within 2000 to 5000 nM.

Turning to `CN1CCn2c(C(=O)C(F)(F)F)ccc2C12CCN(C(=O)c1ccc(-c3ccccc3)cn1)CC2` [Compound 453], the IC50 was in the range of 2000 to 5000 nM. For `CC(=O)c1cc2n(c1)CC(C)(C)NC21CCN(C(=O)c2ccc(OC(C)C)c(C)c2)CC1` [Compound 454], the half-inhibitory concentration (IC50) was greater than 5000 nM. The result for `COc1ccc(C(=O)N2CCC3(CC2)c2ccc(C(=O)C(F)(F)F)n2CCN3C)cc1OC(C)C` [Compound 455] reads no more than 2000 nM.
